Test results: patent US7393872B2, “Sodium channel blocker compositions and the use thereof” (Euro-Celtique S.A., priority 1999, dated 2008)

What was measured:
[1] = system: Chung model of neuropathic rats; assay: Tactile allodynia in the Chung model of peripheral neuropathy; assay type: in vivo, rat; details: given alone, FIG. 2
Description: Male Sprague-Dawley rats weighing between 200-225 g were anesthetized with halothane (1-3% in a mixture of 70% air and 30% oxygen) and their body temperature controlled during anesthesia through use of a homeothermic blanket. A 2-cm dorsal midline incision was then made at the L5 and L6 level and the para-vertibral muscle groups retracted bilaterally. L5 and L6 spinal nerves were then be exposed, isolated, and tightly ligated with 6-0 silk suture. A sham operation was performed exposing the contralateral L5 and L6 spinal nerves as a negative control.
Tactile Allodynia: Rats were transferred to an elevated testing cage with a wire mesh floor and allowed to acclimate for five to ten minutes. A series of Semmes-Weinstein monofilaments were applied to the plantar surface of the hindpaw to determine the animal's withdrawal threshold. […] This procedure was repeated with subsequent lesser filaments until there was no response and the lightest filament that elicited a response was recorded. […] For each animal, three measurements were made at every time point to produce an average withdrawal threshold determination. Tests were performed prior to and at 1, 2, and 24 hrs post drug administration. Tactile allodynia and mechanical hyperalgesia tests were conducted concurrently.

[2] = system: chronic pain; details: clinical trials; 15-20% of patients treated with placebo showed effectiveness; cited from earlier work

SMILES | tactile antiallodynia effect (withdrawal threshold) ([1]; 25 mg/kg s.c.) | patient population that showed effectiveness [2] | tactile antiallodynia effect (withdrawal threshold) ([1]; 1.25 mg/kg p.o.)
NCC1(CC(=O)O)CCCCC1 [gabapentin, 1-(aminomethyl)cyclohexaneacetic acid] | minimum or no effect | less than 50% | –
NC(=O)NN=Cc1ccc(Oc2ccc(F)cc2)cc1 [Co 102862, 4-(4′-fluoro-phenoxy)benzaldehyde semicarbazone] | – | – | moderate antiallodynia effect
